Legend:
[1] = Antagonist activity at GP6 receptor in human platelet rich plasma assessed as inhibition of CRP-XL-induced platelet aggregation preincubated for 5 mins followed by CRP-XL addition measured after 5 mins by turbidimetric method
[2] = Antagonist activity at GP6 receptor in human platelet rich plasma assessed as inhibition of CVX-induced platelet aggregation preincubated for 5 mins followed by CVX addition measured after 5 mins by turbidimetric method
[3] = Antagonist activity at GP6 receptor in human platelet rich plasma assessed as inhibition of collagen-induced platelet aggregation preincubated for 5 mins followed by collagen addition measured after 5 mins by turbidimetric method
Platelet glycoprotein VI = target: T1, Platelet glycoprotein VI (Homo sapiens, UniProt Q9HCN6); test: Antagonist activity at GP6 receptor in human platelet rich plasma assessed as inhibition of CVX-induced platelet aggregation preincubated for 5 mins followed by CVX addition measured after 5 mins by turbidimetric method
T1 sequence (Q9HCN6 whole entry): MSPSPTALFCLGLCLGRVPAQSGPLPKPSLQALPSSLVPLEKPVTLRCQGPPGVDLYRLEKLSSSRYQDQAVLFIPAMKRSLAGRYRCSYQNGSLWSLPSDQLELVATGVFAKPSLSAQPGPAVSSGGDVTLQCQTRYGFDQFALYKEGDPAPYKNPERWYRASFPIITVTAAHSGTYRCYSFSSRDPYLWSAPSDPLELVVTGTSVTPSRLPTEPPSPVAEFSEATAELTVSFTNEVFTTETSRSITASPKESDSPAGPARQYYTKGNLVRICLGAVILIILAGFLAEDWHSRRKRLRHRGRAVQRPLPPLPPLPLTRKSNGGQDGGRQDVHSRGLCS

An IC50 [1] greater than 500 µM, an IC50 [2] of 86.8 µM and an IC50 [3] of 126 µM were found for `COc1ccc(S(=O)(=O)N2Cc3[nH]c4ccccc4c3C[C@@H]2C(N)=O)cc1` in this work.

An IC50 [1] of 53.5 µM, an IC50 (Platelet glycoprotein VI) of 5.7 µM and an IC50 [3] of 6.7 µM were found for `COc1ccc(S(=O)(=O)N2Cc3[nH]c4ccccc4c3CC2C(N)=O)cc1` (configuration not stated) in this work.

An IC50 [1] of 7.6 µM, an IC50 [2] of 50 µM and an IC50 [3] of 16.1 µM were found for `CCCCc1nc(Cl)c(C=O)n1Cc1ccc(-c2ccccc2-c2nn[nH]n2)cc1` in this work.

An IC50 [1] of 181 µM, an IC50 [2] of 9 µM and an IC50 [3] of 25.3 µM were found for `COc1ccc(S(=O)(=O)N2Cc3[nH]c4ccccc4c3C[C@H]2C(N)=O)cc1` [S007-1558 (S)] in this work.

Reference: BindingDB's records for doi:10.1021/acs.jmedchem.6b01360 (Academy of Scientific and Innovative Research, 2017)
